PubChem BioAssay AID1259407 (Chemical Carcinogenesis Research Information System (CCRIS), 2018)
Active and inactive are the calls of the source. No rule for the calls is given here.

Test system: CCRIS mutagenicity, Ames/micronucleus/aberration tests
Assay: CCRIS mutagenicity studies
[1] = Test System: AMES SALMONELLA TYPHIMURIUM, Strain/Indicator: TA100, Metabolic Activation: NONE, Method: STANDARD PLATE

Nc1ccc(-c2ccc(N)c(Cl)c2)cc1Cl
mutagenic call (Test System: AMES SALMONELLA TYPHIMURIUM, Strain/Indicator: TA98(1,8-DNP6), Metabolic Activation: NONE, Method: STANDARD PLATE): active; positive | mutagenic call (Test System: AMES SALMONELLA TYPHIMURIUM, Strain/Indicator: TA98(1,8-DNP6), Metabolic Activation: S-9, Method: STANDARD PLATE): active; positive | mutagenic call (Test System: AMES SALMONELLA TYPHIMURIUM, Strain/Indicator: TA98/1,8-DNP6, Metabolic Activation: HAMSTER, LIVER, S-9, Method: PREINCUBATION): active; positive | mutagenic call (Test System: AMES SALMONELLA TYPHIMURIUM, Strain/Indicator: TA98/1,8-DNP6, Metabolic Activation: NONE, Method: PREINCUBATION): active; positive | mutagenic call (Test System: AMES SALMONELLA TYPHIMURIUM, Strain/Indicator: TA98, Metabolic Activation: HAMSTER, LIVER, S-9, AROCLOR 1254, Method: PREINCUBATION): active; positive | mutagenic call (Test System: AMES SALMONELLA TYPHIMURIUM, Strain/Indicator: TA98, Metabolic Activation: HAMSTER, LIVER, S-9, Method: PREINCUBATION): active; positive | mutagenic call (Test System: AMES SALMONELLA TYPHIMURIUM, Strain/Indicator: TA98, Metabolic Activation: MOUSE, LIVER, S-9, Method: STANDARD PLATE): active; positive | mutagenic call (Test System: AMES SALMONELLA TYPHIMURIUM, Strain/Indicator: TA98, Metabolic Activation: NONE, Method: PREINCUBATION): active; positive | mutagenic call (Test System: AMES SALMONELLA TYPHIMURIUM, Strain/Indicator: TA98, Metabolic Activation: NONE, Method: STANDARD PLATE): active; positive | mutagenic call (Test System: AMES SALMONELLA TYPHIMURIUM, Strain/Indicator: TA98, Metabolic Activation: RAT LIVER S-9, AROCLOR 1254, Method: PREINCUBATION): active; positive | mutagenic call (Test System: AMES SALMONELLA TYPHIMURIUM, Strain/Indicator: TA98, Metabolic Activation: RAT, LIVER, S-9, AROCLOR 1254, Method: PREINCUBATION): active; positive | mutagenic call (Test System: AMES SALMONELLA TYPHIMURIUM, Strain/Indicator: TA98, Metabolic Activation: RAT, LIVER, S-9, AROCLOR 1254, Method: STANDARD PLATE): active; positive | mutagenic call (Test System: AMES SALMONELLA TYPHIMURIUM, Strain/Indicator: TA98, Metabolic Activation: S-9, Method: STANDARD PLATE): active; positive | mutagenic call (Test System: AMES SALMONELLA TYPHIMURIUM, Strain/Indicator: TA100, Metabolic Activation: HAMSTER, LIVER, S-9, AROCLOR 1254, Method: PREINCUBATION): active; positive | mutagenic call (Test System: AMES SALMONELLA TYPHIMURIUM, Strain/Indicator: TA100, Metabolic Activation: NONE, Method: PREINCUBATION): inactive; negative | mutagenic call [1]: inactive; negative | mutagenic call (Test System: AMES SALMONELLA TYPHIMURIUM, Strain/Indicator: TA100, Metabolic Activation: RAT LIVER S-9, AROCLOR 1254, Method: PREINCUBATION): active; positive | mutagenic call (Test System: AMES SALMONELLA TYPHIMURIUM, Strain/Indicator: TA100, Metabolic Activation: RAT, LIVER, S-9, AROCLOR 1254, Method: PREINCUBATION): active; positive | mutagenic call (Test System: AMES SALMONELLA TYPHIMURIUM, Strain/Indicator: TA100, Metabolic Activation: RAT, LIVER, S-9, AROCLOR 1254, Method: STANDARD PLATE): active; positive | mutagenic call (Test System: AMES SALMONELLA TYPHIMURIUM, Strain/Indicator: TA100, Metabolic Activation: S-9, Method: STANDARD PLATE): active; positive | mutagenic call (Test System: AMES SALMONELLA TYPHIMURIUM, Strain/Indicator: TA1535, Metabolic Activation: HAMSTER, LIVER, S-9, AROCLOR 1254, Method: PREINCUBATION): inactive; negative | mutagenic call (Test System: AMES SALMONELLA TYPHIMURIUM, Strain/Indicator: TA1535, Metabolic Activation: NONE, Method: PREINCUBATION): inactive; negative | mutagenic call (Test System: AMES SALMONELLA TYPHIMURIUM, Strain/Indicator: TA1535, Metabolic Activation: RAT, LIVER, S-9, AROCLOR 1254, Method: PREINCUBATION): inactive; negative | mutagenic call (Test System: AMES SALMONELLA TYPHIMURIUM, Strain/Indicator: TA1535, Metabolic Activation: RAT, LIVER, S-9, AROCLOR 1254, Method: STANDARD PLATE): active; positive | mutagenic call (Test System: AMES SALMONELLA TYPHIMURIUM, Strain/Indicator: TA1537, Metabolic Activation: HAMSTER, LIVER, S-9, AROCLOR 1254, Method: PREINCUBATION): active; positive | mutagenic call (Test System: AMES SALMONELLA TYPHIMURIUM, Strain/Indicator: TA1537, Metabolic Activation: NONE, Method: PREINCUBATION): inactive; negative | mutagenic call (Test System: AMES SALMONELLA TYPHIMURIUM, Strain/Indicator: TA1537, Metabolic Activation: RAT, LIVER, S-9, AROCLOR 1254, Method: PREINCUBATION): active; positive | mutagenic call (Test System: AMES SALMONELLA TYPHIMURIUM, Strain/Indicator: TA1537, Metabolic Activation: RAT, LIVER, S-9, PHENOBARBITAL, Method: STANDARD PLATE): active; positive | mutagenic call (Test System: AMES SALMONELLA TYPHIMURIUM, Strain/Indicator: TA1538, Metabolic Activation: HAMSTER, LIVER, S-9, Method: STANDARD PLATE): active; positive | mutagenic call (Test System: AMES SALMONELLA TYPHIMURIUM, Strain/Indicator: TA1538, Metabolic Activation: NONE, Method: STANDARD PLATE): active; positive | mutagenic call (Test System: AMES SALMONELLA TYPHIMURIUM, Strain/Indicator: TA1538, Metabolic Activation: RAT, LIVER, S-9, AROCLOR 1254, Method: STANDARD PLATE): active; positive | mutagenic call (Test System: AMES SALMONELLA TYPHIMURIUM, Strain/Indicator: TA1538, Metabolic Activation: RAT, LIVER, S-9, PHENOBARBITAL, Method: STANDARD PLATE): active; positive | mutagenic call (Test System: Ames Salmonella typhimurium, Strain/Indicator: TA102, Metabolic Activation: None, Method: Preincubation): active; positive | mutagenic call (Test System: Ames Salmonella typhimurium, Strain/Indicator: TA102, Metabolic Activation: Rat, liver, S-9, Aroclor 1254, 4%, Method: Preincubation): active; positive | mutagenic call (Test System: UDS HUMAN FIBROBLASTS, Strain/Indicator: THY INCORP (NON-S-PHASE), Metabolic Activation: NONE, Method: LIQUID SCINTILLATION COUNTING): active; positive

CC(Cl)C(=O)NCc1ccccc1 (configuration not stated)
mutagenic call (Test System: AMES SALMONELLA TYPHIMURIUM, Strain/Indicator: TA100, Metabolic Activation: MOUSE, LIVER, S-9, AROCLOR 1254, Method: STANDARD PLATE): inactive; negative | mutagenic call [1]: inactive; negative
